# System: K14 mouse model of type 2 Gaucher disease
# Assay: K14 mouse model of type 2 Gaucher disease
# Assay type: in vivo
# Description: As noted above, Gaucher Disease results from a deficiency of the lysosomal enzyme glucocerebrosidase (GC). In the most common phenotype of Gaucher disease (type 1), pathology is limited to the reticuloendothelial and skeletal systems and there are no neuropathic symptoms. See Barranger, Glucosylceramide lipidosis: Gaucher disease. In: Scriver C R B A, Sly W S, Valle D, editor. The Metabolic Basis of Inherited Disease. New York: McGraw-Hill. pp. 3635-3668 (2001). In neuropathic Gaucher disease (nGD), subdivided into type 2 and type 3 Gaucher disease, the deficiency of glucocerebrosidase (GC) causes glucosylceramide (GluCer; GL-1) and glucosylsphingosine (GluSph) to accumulate in the brain, leading to neurologic impairment. Type 2 Gaucher disease is characterized by early onset, rapid progression, extensive pathology in the viscera and central nervous system, and death usually by 2 years of age. Type 3 Gaucher disease, also known as subacute nGD, is an intermediate phenotype with varying age of onset and different degrees of severity and rates of progression. Goker-Alpan et al., The Journal of Pediatrics 143: 273-276 (2003). A recent development has produced the K14 lnl/lnl mouse model of type 2 Gaucher disease (hereinafter, the “K14 mouse”); this mouse model closely recapitulates the human disease showing ataxia, seizures, spasticity and a reduced median lifespan of only 14 days. Enquist et al., PNAS 104: 17483-17488 (2007).
# As in patients with nGD, several mouse models of the disease have increased levels of GluCer and GluSph in the brain due to the deficiency in GC activity. Liu et al., PNAS 95: 2503-2508 (1998) and Nilsson, J. Neurochem 39: 709-718 (1982). The “K14” mice display a neuropathic phenotype that shares many pathologic features with type 2 Gaucher disease, such as neurodegeneration, astrogliosis, microglial proliferation, and increased levels of GluCer and GluSph in specific brain regions. Enquist et al. (2007).
# Clinical management of patients affected by nGD poses a challenge for treating physicians both because of the severity of type 2 disease and the inability of the current therapies to cross the blood brain barrier (BBB). Current treatment of non-nGD relies on the intravenous delivery of recombinant human glucocerebrosidase (Imiglucerase; Cerezyme™) to replace the missing enzyme or the administration of glucosylceramide synthase inhibitors to attenuate substrate (GL-1) production. […] Current small molecule glucosylceramide synthase inhibitors in the clinic are not likely to address the neuropathic phenotypes of nGD.
smiles,measurement,setting,value
"CC(C)(NC(=O)OC1CN2CCC1CC2)c1cccc(-c2ccc(F)cc2)c1 (stereo not shown) [Gz161, Quinuclidin-3-yl (2-(4′-fluoro-[1,1′-biphenyl]-3-yl)propan-2-yl)carbamate]",brain neuropathology,,reduced
same,lifespan,,extended
same,brain GluCer,brain,reduce
same,brain GluSph,brain,reduce

# From US9518049B2, “Salt forms of (S)-quinuclidin-3-yl (2-(2-(4-fluorophenyl)thiazol-4-yl)propan-2-yl)carbamate” (Genzyme Corporation, priority 2013, dated 2016)
